In this assay the test system is HCV replicon. Put plainly: microbe, parasite or virus in culture. The class given is cell-based.
Setting [1] is: Replicon IC50 values are determined by firefly luciferase signal, bicistronic replicon, 2 days, read-out: Replicon IC5Os.

The text below walks through data of patent publication US8013006B2.

Like-named read-outs stand apart in the source and are kept apart here.

Turning to `CC(=O)OCc1c(OC(C)=O)ccc2c([N+](=O)[O-])c(C)n(-c3ccc(C)cc3)c12` [Compound 1], the IC50 (Hepatitis C virus, 48 h, read-out: Replicon IC5Os μM) is more than 2 µM.
Take `COc1ccc(-n2c(C)c([N+](=O)[O-])c3cc(CN(C)C)c(O)cc32)cc1` [Compound 3]: under setting [1], the IC50 was more than 2 µM.
Same read-out and setting: with `CC(C)n1cc(C#N)c2ccc(O)cc21` [Compound 6] the figure was more than 2 µM; with `COc1ccc2c(C#N)cn(-c3ccc(C)c(C)c3)c2c1` [Compound 8], 0.5 to 2 µM; with `CCCCOc1ccc2c(C#N)cn(CC)c2c1` [Compound 11], more than 2 µM.
On to `CCn1cc(C#N)c2ccc(OCc3ccccc3)cc21` [Compound 12], for which the IC50 under setting [1] was in the range of 0.5 to 2 µM.
For `CCOC(=O)c1cn(CC)c2cc(OC)ccc12` [Compound 17], the IC50 under setting [1] is more than 2 µM.
As to `CCn1cc(C#N)c2ccc(OC(F)F)cc21` [Compound 18], under setting [1], the IC50 was more than 2 µM.
In the case of `CCn1c(-c2ccoc2)c(C#N)c2ccc(OC)cc21` [Compound 20], under setting [1], the IC50 was more than 2 µM.
Turning to `CCn1c(-c2ccccc2)c(C#N)c2ccc(OC)cc21` [Compound 21], the IC50 under setting [1] is more than 2 µM.
`CCn1cc(C#N)c2ccc(-n3cccc3)cc21` [Compound 27]: under setting [1], the IC50 fell in the range of 0.5 to 2 µM.
As to `CCn1cc(-c2noc(C3CC3)n2)c2ccc(OC)cc21` [Compound 29], the IC50 under setting [1] is more than 2 µM.
As for `CCNc1c(C(=O)OC)c2ccc([N+](=O)O)cc2n1CC` [Compound 30], the IC50 under setting [1] is more than 2 µM.
As for `CCn1cc(C(=O)c2ccccc2)c2cc(OC)ccc21` [Compound 32], the IC50 under setting [1] is more than 2 µM.
`CCn1cc(C(=O)c2ccccc2)c2ccc(OC)cc21` [Compound 33]: the IC50 under setting [1] is more than 2 µM.
On the same count and under the same terms, the result for `CCC(=O)c1cn(CC)c2cc(OC)ccc12` [Compound 34] reads more than 2 µM; that for `CCn1cc(C(=O)C(C)C)c2ccc(OC)cc21` [Compound 37], more than 2 µM.
For the molecule `CCn1cc(C(=O)c2cccc(OC)c2)c2ccc(OC)cc21` [Compound 38], the IC50 under setting [1] is more than 2 µM.
As to `CCn1cc(C(=O)c2cccc(OC)c2)c2cc(OC)ccc21` [Compound 39], the IC50 under setting [1] is more than 2 µM.
As for `COc1ccc(-c2c[nH]c3ccc([N+](=O)O)cc23)cc1` [Compound 40], under setting [1], the IC50 was more than 2 µM.
As to `COc1ccc(-n2cc(C(C)=O)c3cc(OC)ccc32)cc1` [Compound 42, 1-[5-methoxy-1-(4-methoxyphenyl)-1-H-indol-3-yl]-ethanone], under setting [1], the IC50 was more than 2 µM.
`CC(C)n1cc(C#N)c2cc3c(cc21)OCO3` [Compound 43]: the IC50 under setting [1] is more than 2 µM.
As for `CCOC(=O)c1c(C)n(-c2ccc(OC)cc2)c2cc(OC(F)F)ccc12` [Compound 46], under setting [1], the IC50 is more than 2 µM.
For `COc1ccc(-n2cc(C(=O)c3ccc(F)cc3)c3ccc(OC)cc32)cc1` [Compound 47], under setting [1], the IC50 was more than 2 µM.
As for `N#Cc1cn(C(F)F)c2cc(OC(F)F)ccc12` [Compound 50], the IC50 under setting [1] was more than 2 µM.
As for `CC(C)n1cc(C#N)c2cc3c(cc21)OCCO3` [Compound 52], the IC50 under setting [1] was more than 2 µM.
As to `CCn1cc(-c2ccno2)c2ccc(C(=O)OC)cc21` [Compound 60], the IC50 under setting [1] is more than 2 µM.
On the same count and under the same terms, the result for `CCn1cc(-c2ccn[nH]2)c2ccc(C(=O)OC)cc21` [Compound 61] reads more than 2 µM.
As to `CCOC(=O)c1cn(CC)c2cc3c(cc12)OCO3` [Compound 62], the IC50 under setting [1] is more than 2 µM.
For the molecule `CCn1c(-c2ccc(C(C)(C)C)cc2)c(C#N)c2ccc(OC)cc21` [Compound 63], the IC50 under setting [1] is more than 2 µM.
Consider `CCn1c(C#Cc2ccccc2)c(C#N)c2ccc(OC)cc21` [Compound 64], for which the IC50 under setting [1] was more than 2 µM.
The same measure, in the same setting: with `CCn1c(C#Cc2ccc(OC)cc2)c(C#N)c2ccc(OC)cc21` [Compound 65] the figure was 0.5 to 2 µM; with `CCn1c(C#Cc2cccc(OC)c2)c(C#N)c2ccc(OC)cc21` [Compound 66], more than 2 µM; with `CCn1c(C#Cc2ccc(C)cc2)c(C#N)c2ccc(OC)cc21` [Compound 68], 0.5 to 2 µM.
For `CCOc1ccc(-c2c(C#N)c3ccc(OC)cc3n2CC)cc1` [Compound 70], the IC50 under setting [1] is more than 2 µM.
In the case of `CCn1c(-c2ccc(C(=O)N(C)C)cc2)c(C#N)c2ccc(OC)cc21` [Compound 71], the IC50 under setting [1] was more than 2 µM.
The same measure, in the same setting: with `CCn1c(-c2ccc(OC)c(F)c2)c(C#N)c2ccc(OC)cc21` [Compound 74] the figure was more than 2 µM; with `COc1ccc(-c2c(C#N)c3ccc(OC)cc3n2C)cc1` [Compound 76], more than 2 µM; with `CCOc1ccc(-c2c(C#N)c3ccc(OC)cc3n2C)cc1` [Compound 77], more than 2 µM.
Regarding `CCn1cc(-c2nccs2)c2ccc(C(=O)OC)cc21` [Compound 78], under setting [1], the IC50 was more than 2 µM.
For the molecule `CCn1c(-c2ccc(C(C)C)cc2)c(C#N)c2ccc(C(N)=O)cc21` [Compound 79], the IC50 under setting [1] was more than 2 µM.
The same measure, in the same setting: with `CCn1c(-c2ccc(NS(=O)(=O)CC)cc2)c(C#N)c2ccc(OC)cc21` [Compound 83] the figure was less than 0.5 µM; with `COc1ccc2c(C#N)c(-c3ccc(NS(C)(=O)=O)cc3)n(C3CCC3)c2c1` [Compound 87], less than 0.5 µM; with `COc1ccc(-n2cc(C#N)c3ccc(C(=O)NO)cc32)cc1` [Compound 89], 0.5 to 2 µM.
On to `COc1ccc(-n2cc(C#N)c3ccc(NC(=O)OC(C)(C)C)cc32)cc1` [Compound 90], for which the IC50 under setting [1] was more than 2 µM.
With `COc1ccc(C#Cc2c(C#N)c3ccc(OC)cc3n2C)cc1` [Compound 92], under setting [1], the IC50 is more than 2 µM.
Turning to `COc1ccc2c(C#N)c(C#Cc3ccc(F)cc3)n(C)c2c1` [Compound 93], the IC50 under setting [1] was more than 2 µM.
For `COc1ccc(-n2cc(C#N)c3ccc(NC(=O)NC(C)(C)C)cc32)cc1` [Compound 98], the IC50 under setting [1] was more than 2 µM.
As for `COc1ccc2c(C#N)c(-c3cccc(C)c3)n(C)c2c1` [Compound 100], the IC50 under setting [1] is more than 2 µM.
As to `COc1ccc(-n2cc(C#N)c3ccc(F)cc32)cc1` [Compound 102], under setting [1], the IC50 is more than 2 µM.
As to `COc1ccc(-n2cc(C#N)c3ccc(C)cc32)cc1` [Compound 103], the IC50 under setting [1] was more than 2 µM.
In the case of `COc1ccc(-n2cc(-c3nc(C(C)(C)C)cs3)c3ccc(C(N)=O)cc32)cc1` [Compound 104], under setting [1], the IC50 lay in the range of 0.5 to 2 µM.
As for `COC(=O)c1ccc2c(-c3nc(-c4ccncc4)cs3)cn(-c3ccc(OC)cc3)c2c1` [Compound 105], the IC50 under setting [1] is more than 2 µM.
For the molecule `COc1ccc(-n2cc(-c3nc(-c4ccc(Cl)c(Cl)c4)cs3)c3ccc(C(N)=O)cc32)cc1` [Compound 106], under setting [1], the IC50 is more than 2 µM.
`CCn1cc(C#N)c2cc(Br)ccc21` [Compound 108]: under setting [1], the IC50 was more than 2 µM.
In the case of `CCCn1cc(C#N)c2cc(Br)ccc21` [Compound 109], the IC50 under setting [1] was more than 2 µM.
Consider `CCOC(=O)c1ccc(-c2c(C#N)c3ccc(OC)cc3n2CC)cc1` [Compound 110], for which the IC50 under setting [1] is 0.5 to 2 µM.
For the molecule `Cc1ccc2c(C#N)cn(-c3ccc4c(c3)OCO4)c2c1` [Compound 112], the IC50 under setting [1] lay within 0.5 to 2 µM.
Turning to `CCn1c(-c2ccc(C(=O)N3CCCC3)cc2)c(C#N)c2ccc(OC)cc21` [Compound 113], the IC50 under setting [1] is more than 2 µM.
`CCn1c(-c2ccc(C(=O)N3CCOCC3)cc2)c(C#N)c2ccc(OC)cc21` [Compound 114]: under setting [1], the IC50 is more than 2 µM.
The same measure, in the same setting: with `N#Cc1c[nH]c2cc(Cl)ccc12` [Compound 115] the figure was more than 2 µM; with `COc1ccc(-n2cc(C#N)c3ccccc32)cc1` [Compound 117], more than 2 µM.
